In publication PMC12564265, “Navigating the Deep Eutectic Solvent Landscape: Experimental and Machine Learning Solubility Explorations of Syringic, p-Coumaric, and Caffeic Acids” (International Journal of Molecular Sciences, 2025):
Several values for one entry are separate records, joined by “and”; a condition that tells them apart may be missing. Equal values may be shown once.

Key:
[1] = Shake-flask solubility with spectrophotometric measurement in neat deep eutectic solvents; assay type: physicochemical
Procedure: (§1) In order to determine the solubility of the three studied phenolic acids in deep eutectic solvents, a very well-established shake-flask method coupled with spectrophotometric measurements was utilized. The initial procedure involved the preparation of various DESs, which was conducted by mixing their HBA and HBD counterparts in a glass vessel and heating the composition until the formation of a transparent, uniform liquid. […] For additional measurements, the DESs were mixed with water in varying proportions, creating aqueous DES systems. Saturated solutions of CAF, SYR, and COU were obtained by adding excess amounts of these compounds to test tubes containing either a neat deep eutectic solvent or its aqueous solution. Such samples were placed in the Orbital Shaker Incubator ES-20/60 from Biosan (Riga, Latvia) and heated for 24 h at 25 °C, 30 °C, 35 °C, and 40 °C (±0.1 °C) with simultaneous mixing at 60 rpm. Before measurements, the samples were filtered using a PTFE syringe filter from Qpore (Dallas, TX, USA) with a 0.22 μm pore size. In order to avoid possible precipitation of the saturated solutions at decreased temperatures, the test tubes, syringes, pipette tips, and filters were kept at a temperature identical to that of the samples. The spectrophotometric measurements required the preparation of calibration curves for the three APIs. This involved the preparation of a stock solution of each compound in methanol, which was later successfully diluted, and the obtained solutions of varying concentrations were measured using an A360 spectrophotometer from AOE Instruments (Shanghai, China). The wavelength range was set to 200-500 nm, and the resolution was 1 nm. The analytical wavelengths were determined to be 324 nm for caffeic acid, 273 nm for syringic acid, and 308 nm for p-coumaric acid. The final regression equations, obtained after averaging three distinct sets of measurements, are collected in Table 2 together with determination coefficients and limits of detection (LOD) and quantification (LOQ) for the calibration curves. The measurements of the samples were conducted with the same spectrophotometer and identical settings. Methanol was used for the dilution of the samples so that they could remain within the linearity range of the method. Complete spectra of the samples were recorded, but for the solubility determination, the absorbance values at a specific analytical wavelength were considered. These values were combined with the corresponding regression equations of the calibration curves and served for the calculation of the concentration of the three phenolic acids in the studied samples. The densities of such samples were also measured, and for this task 1 mL of each sample was weighed to a precision of 0.1 mg using an AS 110 R2.PLUS analytical balance from […] (Radom, Poland). The obtained densities enabled the calculation of mole fractions of CAF, SYR, and COU dissolved in the studied DESs. For each considered system, three distinct measurements were conducted, and the results were averaged.

[2] = Shake-flask solubility with spectrophotometric measurement in aqueous DES mixtures; assay type: physicochemical; details: Bet – TEG 1:2 + water
Procedure: as §1

- Mole fraction solubility ([1]; neat DES Bet - DEG, HBA:HBD molar ratio 1:1, 25 °C): 0.0497±0.0004 mole fraction
- Mole fraction solubility ([1]; neat DES Bet - DEG, HBA:HBD molar ratio 1:2, 25 °C): 0.0576±0.0005 mole fraction
- Mole fraction solubility ([1]; neat DES Bet - DEG, HBA:HBD molar ratio 1:4, 25 °C): 0.0537±0.0004 mole fraction
- Mole fraction solubility ([1]; neat DES Bet - ETG, HBA:HBD molar ratio 1:1, 25 °C): 0.0411±0.0004 mole fraction
- Mole fraction solubility ([1]; neat DES Bet - ETG, HBA:HBD molar ratio 1:2, 25 °C): 0.0458±0.0004 mole fraction
- Mole fraction solubility ([1]; neat DES Bet - GLY, HBA:HBD molar ratio 1:1, 25 °C): 0.0561±0.0004 mole fraction
- Mole fraction solubility ([1]; neat DES Bet - GLY, HBA:HBD molar ratio 1:2, 25 °C): 0.0622±0.0006 mole fraction
- Mole fraction solubility ([1]; neat DES Bet - GLY, HBA:HBD molar ratio 1:4, 25 °C): 0.0573±0.0002 mole fraction
- Mole fraction solubility ([1]; neat DES Bet - TEG, HBA:HBD molar ratio 1:1, 25 °C): 0.0655±0.0012 mole fraction
- Mole fraction solubility ([1]; neat DES Bet - TEG, HBA:HBD molar ratio 1:2, 25 °C): 0.0755±0.0010 mole fraction
- Mole fraction solubility ([1]; neat DES Bet - TEG, HBA:HBD molar ratio 1:2, 25 °C, listed as Caffeic acid): 0.0755 mole fraction
- Mole fraction solubility ([1]; neat DES Bet - TEG, HBA:HBD molar ratio 1:4, 25 °C): 0.0716±0.0007 mole fraction
- Mole fraction solubility ([1]; neat DES ChCl - DEG, HBA:HBD molar ratio 1:1, 25 °C): 0.0584±0.0003 mole fraction
- Mole fraction solubility ([1]; neat DES ChCl - DEG, HBA:HBD molar ratio 1:2, 25 °C): 0.0664±0.0005 mole fraction
- Mole fraction solubility ([1]; neat DES ChCl - ETG, HBA:HBD molar ratio 1:1, 25 °C): 0.0435±0.0004 mole fraction
- Mole fraction solubility ([1]; neat DES ChCl - ETG, HBA:HBD molar ratio 1:2, 25 °C): 0.0494±0.0003 mole fraction
- Mole fraction solubility ([1]; neat DES ChCl - ETG, HBA:HBD molar ratio 1:4, 25 °C): 0.0471±0.0003 mole fraction
- Mole fraction solubility ([1]; neat DES ChCl - TEG, HBA:HBD molar ratio 1:2, 25 °C): 0.0835 mole fraction
- Mole fraction solubility ([2]; x*DES 0.1, 25°C): 0.0077±0.0001 mole fraction
- Mole fraction solubility ([2]; x*DES 0.1, 30°C): 0.0087±0.0001 mole fraction
- Mole fraction solubility ([2]; x*DES 0.1, 35°C): 0.0101±0.0001 mole fraction
- Mole fraction solubility ([2]; x*DES 0.1, 40°C): 0.0121±0.0001 mole fraction
- Mole fraction solubility ([2]; x*DES 0.2, 25°C): 0.0155±0.0001 mole fraction
- Mole fraction solubility ([2]; x*DES 0.2, 30°C): 0.0195±0.0002 mole fraction
- Mole fraction solubility ([2]; x*DES 0.2, 35°C): 0.0203±0.0002 mole fraction
- Mole fraction solubility ([2]; x*DES 0.2, 40°C): 0.0243±0.0003 mole fraction
- Mole fraction solubility ([2]; x*DES 0.3, 25°C): 0.0243±0.0002 mole fraction
- Mole fraction solubility ([2]; x*DES 0.3, 30°C): 0.0271±0.0002 mole fraction
- Mole fraction solubility ([2]; x*DES 0.3, 35°C): 0.0318±0.0002 mole fraction
- Mole fraction solubility ([2]; x*DES 0.3, 40°C): 0.0377±0.0003 mole fraction
- Mole fraction solubility ([2]; x*DES 0.4, 25°C): 0.0343±0.0002 mole fraction
- Mole fraction solubility ([2]; x*DES 0.4, 30°C): 0.0379±0.0001 mole fraction
- Mole fraction solubility ([2]; x*DES 0.4, 35°C): 0.0450±0.0002 mole fraction
- Mole fraction solubility ([2]; x*DES 0.4, 40°C): 0.0538±0.0003 mole fraction
- Mole fraction solubility ([2]; x*DES 0.5, 25°C): 0.0432±0.0002 mole fraction
- Mole fraction solubility ([2]; x*DES 0.5, 30°C): 0.0476±0.0003 mole fraction
- Mole fraction solubility ([2]; x*DES 0.5, 35°C): 0.0565±0.0003 mole fraction
- Mole fraction solubility ([2]; x*DES 0.5, 40°C): 0.0690±0.0009 mole fraction
- Mole fraction solubility ([2]; x*DES 0.6, 25°C): 0.0543±0.0003 mole fraction
- Mole fraction solubility ([2]; x*DES 0.6, 30°C): 0.0601±0.0005 mole fraction
- Mole fraction solubility ([2]; x*DES 0.6, 35°C): 0.0703±0.0005 mole fraction
- Mole fraction solubility ([2]; x*DES 0.6, 40°C): 0.0870±0.0009 mole fraction
- Mole fraction solubility ([2]; x*DES 0.7, 25°C): 0.0659±0.0007 mole fraction
- Mole fraction solubility ([2]; x*DES 0.7, 30°C): 0.0737±0.0006 mole fraction
- Mole fraction solubility ([2]; x*DES 0.7, 35°C): 0.0862±0.0007 mole fraction
- Mole fraction solubility ([2]; x*DES 0.7, 40°C): 0.1046±0.0008 mole fraction
- Mole fraction solubility ([2]; x*DES 0.8, 25°C): 0.0797±0.0006 mole fraction
- Mole fraction solubility ([2]; x*DES 0.8, 30°C): 0.0901±0.0008 mole fraction
- Mole fraction solubility ([2]; x*DES 0.8, 35°C): 0.1042±0.0013 mole fraction
- Mole fraction solubility ([2]; x*DES 0.8, 40°C): 0.1253±0.0010 mole fraction
SMILES: O=C(O)C=Cc1ccc(O)c(O)c1 [caffeic acid, 3,4-dihydroxycinnamic acid]
- Mole fraction solubility ([2]; x*DES 0.9, 25°C): 0.0823 mole fraction and 0.0823±0.0013 mole fraction
